ChEMBL document CHEMBL5579817, “Recent advances in targeting histone H3 lysine 36 methyltransferases for cancer therapy” (Eur J Med Chem, 2024)

How the values were obtained:
[1] = molecular target: T1, Histone-lysine N-methyltransferase NSD2 (Homo sapiens, UniProt O96028); test: Inhibition of NSD2 SET domain (unknown origin) extracted from Escherichia coli BL21
T1 sequence (O96028 whole entry): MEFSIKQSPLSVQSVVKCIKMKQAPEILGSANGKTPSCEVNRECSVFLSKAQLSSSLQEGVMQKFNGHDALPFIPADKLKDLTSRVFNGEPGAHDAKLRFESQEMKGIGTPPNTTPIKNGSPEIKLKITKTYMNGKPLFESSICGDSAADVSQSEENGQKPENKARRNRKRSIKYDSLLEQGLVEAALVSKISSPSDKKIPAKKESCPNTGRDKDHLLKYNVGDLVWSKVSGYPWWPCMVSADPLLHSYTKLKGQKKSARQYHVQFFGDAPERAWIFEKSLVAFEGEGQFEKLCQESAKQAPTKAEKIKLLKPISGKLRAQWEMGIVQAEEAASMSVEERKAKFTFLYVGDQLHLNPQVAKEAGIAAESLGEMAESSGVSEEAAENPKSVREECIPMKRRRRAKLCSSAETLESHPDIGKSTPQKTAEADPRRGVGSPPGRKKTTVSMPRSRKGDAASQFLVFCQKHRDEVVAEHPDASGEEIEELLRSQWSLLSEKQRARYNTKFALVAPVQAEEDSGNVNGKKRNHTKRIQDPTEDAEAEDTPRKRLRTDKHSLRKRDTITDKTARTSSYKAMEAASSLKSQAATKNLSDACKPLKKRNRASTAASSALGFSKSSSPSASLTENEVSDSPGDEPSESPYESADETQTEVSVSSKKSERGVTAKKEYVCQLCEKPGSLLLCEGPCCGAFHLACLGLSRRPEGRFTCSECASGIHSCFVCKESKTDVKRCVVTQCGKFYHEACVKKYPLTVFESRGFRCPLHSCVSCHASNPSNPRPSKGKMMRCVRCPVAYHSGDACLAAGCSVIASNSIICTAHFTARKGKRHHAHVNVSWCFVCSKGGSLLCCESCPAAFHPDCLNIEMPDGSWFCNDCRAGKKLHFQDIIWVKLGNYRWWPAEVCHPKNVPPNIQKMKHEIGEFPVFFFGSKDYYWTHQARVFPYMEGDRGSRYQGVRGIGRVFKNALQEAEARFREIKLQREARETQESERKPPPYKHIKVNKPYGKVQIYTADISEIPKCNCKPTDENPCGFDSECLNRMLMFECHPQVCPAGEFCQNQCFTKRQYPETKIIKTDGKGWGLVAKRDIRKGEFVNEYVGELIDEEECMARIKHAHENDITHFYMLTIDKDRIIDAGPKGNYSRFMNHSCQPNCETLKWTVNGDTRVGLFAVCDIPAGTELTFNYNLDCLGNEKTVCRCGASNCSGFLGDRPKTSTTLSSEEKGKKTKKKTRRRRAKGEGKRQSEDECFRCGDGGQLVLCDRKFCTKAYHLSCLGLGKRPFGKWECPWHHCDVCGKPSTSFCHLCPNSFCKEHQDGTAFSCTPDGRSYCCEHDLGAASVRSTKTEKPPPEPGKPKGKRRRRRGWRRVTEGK

[2] = Oral bioavailability in Sprague-Dawley rat by LC-MS/MS analysis; assay type: ADME, organism-based; settings: in vivo
[3] = Oral bioavailability in CD-1 mouse by LC-MS/MS analysis; assay type: ADME, organism-based; settings: in vivo
[4] = molecular target: T1, Histone-lysine N-methyltransferase NSD2; test: Inhibition of MMSET (953 to 1240 residues) (unknown origin) by Alpha Screen assay
[5] = molecular target: Protein cereblon/Histone-lysine N-methyltransferase NSD2 (Homo sapiens, UniProt O96028+Q96SW2); test: PROTAC activity at CRBN/NSD2 in human VCaP cells assessed as induction of NSD2 degradation at 2 uM incubated for 24 hrs by immunoblot analysis; assay type: cell-based
[6] = Antiproliferative activity against […] assessed as reduction in cell growth incubated for 48 hrs by MTT assay; assay type: functional, cell-based; settings: RN 22, 48 h
[7] = tested on: KOPN-8; test: Growth inhibition of human KOPN-8 cells; assay type: functional
[8] = tested on: MV4-11; test: Growth inhibition of human MV4-11 cells after 7 days by WST-8 assay; assay type: functional; settings: MV4-11, 168 h, time 7 day
[9] = tested on: MOLM-13; test: Growth inhibition of human MOLM-13 cells; assay type: functional
[10] = molecular target: T1, Histone-lysine N-methyltransferase NSD2; test: Binding affinity to NSD2 (unknown origin) assessed as dissociation constant by SPR analysis
[11] = molecular target: von Hippel-Lindau disease tumor suppressor/Histone-lysine N-methyltransferase NSD3 (Homo sapiens, UniProt Q9BZ95+P40337); test: PROTAC activity at VHL/NSD3 […] domain in human MOLM-13 cells assessed as […] measured after 48 hrs by immunoblotting analysis; assay type: cell-based
[12] = tested on: EOL1; test: Antiproliferative activity against human EOL1 cells assessed as cell growth inhibition; assay type: functional, cell-based

Chain of Protein cereblon/Histone-lysine N-methyltransferase NSD2 (Q96SW2 whole entry, one chain of several): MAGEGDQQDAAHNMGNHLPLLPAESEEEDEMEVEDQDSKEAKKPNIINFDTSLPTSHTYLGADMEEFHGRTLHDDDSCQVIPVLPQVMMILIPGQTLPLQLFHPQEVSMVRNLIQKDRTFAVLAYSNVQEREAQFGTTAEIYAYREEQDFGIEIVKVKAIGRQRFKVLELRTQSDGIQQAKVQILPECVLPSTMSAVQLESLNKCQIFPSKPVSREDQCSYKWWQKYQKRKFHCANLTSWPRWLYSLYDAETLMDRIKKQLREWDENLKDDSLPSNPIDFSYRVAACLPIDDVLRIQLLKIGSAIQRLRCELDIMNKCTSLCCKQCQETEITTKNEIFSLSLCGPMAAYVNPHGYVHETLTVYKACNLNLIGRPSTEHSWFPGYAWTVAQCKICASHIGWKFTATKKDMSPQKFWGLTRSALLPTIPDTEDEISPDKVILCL
Chain of von Hippel-Lindau disease tumor suppressor/Histone-lysine N-methyltransferase NSD3 (Q9BZ95 whole entry): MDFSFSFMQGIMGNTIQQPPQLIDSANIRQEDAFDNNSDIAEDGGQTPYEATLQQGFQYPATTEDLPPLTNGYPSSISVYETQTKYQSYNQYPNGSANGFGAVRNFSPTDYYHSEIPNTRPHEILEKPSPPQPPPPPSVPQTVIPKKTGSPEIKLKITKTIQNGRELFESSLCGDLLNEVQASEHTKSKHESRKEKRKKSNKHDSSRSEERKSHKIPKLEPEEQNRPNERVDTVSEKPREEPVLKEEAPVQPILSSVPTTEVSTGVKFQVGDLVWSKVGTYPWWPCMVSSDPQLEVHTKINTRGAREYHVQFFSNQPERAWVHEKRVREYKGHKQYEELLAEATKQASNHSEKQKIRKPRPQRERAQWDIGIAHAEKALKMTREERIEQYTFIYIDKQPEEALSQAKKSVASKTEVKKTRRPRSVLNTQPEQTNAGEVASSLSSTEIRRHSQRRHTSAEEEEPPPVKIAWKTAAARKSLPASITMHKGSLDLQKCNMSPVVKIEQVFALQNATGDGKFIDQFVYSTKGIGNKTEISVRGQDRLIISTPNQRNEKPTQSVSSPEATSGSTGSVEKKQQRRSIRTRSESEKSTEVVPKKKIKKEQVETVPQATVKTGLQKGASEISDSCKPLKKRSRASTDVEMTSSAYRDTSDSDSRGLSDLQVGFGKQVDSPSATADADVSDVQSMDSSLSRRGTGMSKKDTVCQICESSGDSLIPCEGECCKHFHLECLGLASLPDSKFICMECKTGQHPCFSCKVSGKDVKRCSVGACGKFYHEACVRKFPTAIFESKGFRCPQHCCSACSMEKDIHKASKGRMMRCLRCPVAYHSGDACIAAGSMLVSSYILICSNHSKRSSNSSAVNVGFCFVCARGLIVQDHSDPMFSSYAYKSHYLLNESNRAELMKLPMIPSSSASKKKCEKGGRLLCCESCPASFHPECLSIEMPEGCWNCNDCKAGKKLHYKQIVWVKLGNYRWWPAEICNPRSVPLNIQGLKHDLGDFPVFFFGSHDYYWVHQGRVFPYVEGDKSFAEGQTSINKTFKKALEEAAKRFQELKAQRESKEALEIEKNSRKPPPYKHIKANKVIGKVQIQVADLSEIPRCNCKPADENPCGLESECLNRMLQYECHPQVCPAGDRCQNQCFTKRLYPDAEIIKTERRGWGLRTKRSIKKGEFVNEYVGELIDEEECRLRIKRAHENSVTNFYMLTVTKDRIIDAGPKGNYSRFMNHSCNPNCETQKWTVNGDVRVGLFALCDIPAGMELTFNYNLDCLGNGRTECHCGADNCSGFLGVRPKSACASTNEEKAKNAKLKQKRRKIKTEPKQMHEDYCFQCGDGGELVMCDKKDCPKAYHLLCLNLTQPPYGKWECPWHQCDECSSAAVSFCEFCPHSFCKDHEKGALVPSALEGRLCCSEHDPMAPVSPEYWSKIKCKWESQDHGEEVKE
Chain of von Hippel-Lindau disease tumor suppressor/Histone-lysine N-methyltransferase NSD3 (P40337 whole entry): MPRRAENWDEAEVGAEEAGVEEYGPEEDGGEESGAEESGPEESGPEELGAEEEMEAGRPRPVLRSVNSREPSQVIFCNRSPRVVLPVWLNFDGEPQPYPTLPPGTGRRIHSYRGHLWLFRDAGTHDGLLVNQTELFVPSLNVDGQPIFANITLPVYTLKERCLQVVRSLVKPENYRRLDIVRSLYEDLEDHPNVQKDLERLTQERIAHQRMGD

Compound `O=C1O[C@@H](C(=O)N2CCN(Cc3nc4sc5c(c4c(=O)[nH]3)CCCC5)CC2)Cc2ccccc21` has an IC50 [1] of 0.132 µM.
`CC(=O)N1CCN([C@H]2CCC[C@@H](NC(=O)c3cc4c(F)ccc(C)c4[nH]3)C2)CC1` [EZM-0414] showed a bioavailability [2] of 97%, a bioavailability [3] greater than 100% and an IC50 [4] of 0.018 µM.
`CC(=O)N(C)C1CCN(c2cc(F)cc(NC(=O)c3cc4c(F)ccc(C)c4[nH]3)c2)C1` (centres undefined) gave an IC50 [4] of 0.007 µM.
With `O=C(CNc1cccc2c1C(=O)N(C1CCC(=O)NC1=O)C2=O)NCCCOc1ccc(NC(=O)c2ccc(CN(C(=O)c3ccc4c(c3)OCC(=O)N4)C3CC3)cc2)nc1` (centres undefined) the DC50 [5] was 5.2 µM.
`Cc1cccnc1C(NC(=O)c1cc2c(F)ccc(C)c2[nH]1)C1CC1` (centres undefined) showed an IC50 [4] of 0.6 µM.
For `Cc1cc(CN)cc(C)c1-c1ncn(C)c1-c1ccnc2cc(F)ccc12`, the IC50 [6] was 13 µM.
Work on `NC(=S)c1cccc(-c2cn(C3CCN(S(=O)(=O)C(F)(F)F)CC3)c3cc(CNC(=O)C4CNC4)ccc23)c1` yielded a GI50 [7] of 5 µM, a GI50 [8] of 5 µM and a GI50 [9] of 5 µM.
`CN1CC(C(=O)NCc2ccc3c(-c4cccc(C(N)=S)c4)cn(C4CCN(S(=O)(=O)C(F)(F)F)CC4)c3c2)C1` gave a GI50 [7] of 1.8 µM, a GI50 [8] of 1.8 µM and a GI50 [9] of 1.8 µM.
In the case of `NCCCCCCNC(=O)c1ccc(NC(=O)c2ccc(CN(C(=O)c3ccc4c(c3)OCC(=O)N4)C3CC3)cc2)cc1`, the DC50 [5] is reported as 0.35 µM and the Kd [10] is reported as 0.024 µM.
Compound `CCC(C)N[C@@H](CC[C@H](N)C(=O)O)C[C@H]1O[C@@H](n2cnc3c(N)ncnc32)[C@H](O)[C@@H]1O` (some centres undefined) has an IC50 [4] of 1.8 µM.
For `Cc1cccc2cc(C(=O)NC3CCC(N)CC3)[nH]c12` (centres undefined), the IC50 [4] was 166 µM.
Work on `Cc1cc(CNCCCC(=O)NCCCCCCCCC(=O)N[C@H](C(=O)N2C[C@H](O)C[C@H]2C(=O)N[C@@H](C)c2ccc(-c3scnc3C)cc2)C(C)(C)C)cc(C)c1-c1ncn(C)c1-c1ccnc2cc(F)ccc12` yielded a DC50 [11] of 4.9 µM and an IC50 [12] of 2.3 µM.
Work on `Cc1cccnc1C(NC(=O)c1cc2cccc(C)c2[nH]1)C1CC1` (centres undefined) yielded an IC50 [4] of 3.08 µM.
Compound `Cc1cccc2cc(C(=O)Nc3ccccc3)[nH]c12` has an IC50 [4] of 4.24 µM.
`Cc1ccc(F)c2cc(C(=O)Nc3cccc(N4CCC(N(C)C)CC4)c3)[nH]c12` gave an IC50 [4] of 0.01 µM.
